Laboratory results reported in article PMC11659602, “Discovering covalent cyclic peptide inhibitors of peptidyl arginine deiminase 4 (PADI4) using mRNA-display with a genetically encoded electrophilic warhead” (Communications Chemistry, 2024).
Where “and” joins values, the source holds several entries; their conditions need not be identical. Identical values can stand only once. Like-named read-outs stand apart in the source and are kept apart here. Where a SMILES comes first, the peptide text is derived from it. Bridges are numbered along the chain shown (N, C = ends). [ ]: non-standard residue; d: D form. Orn(fluoroacetimidoyl) = N=C(CF)NCCC[C@H](N)C(=O)O

How the values were obtained:
PADI4 = target: T1, PADI4 (Homo sapiens, UniProt Q9UM07); assay: Surface plasmon resonance (SPR), single cycle kinetics; type: binding; conditions: for Ki: k-1/k+1
T1 construct: His6; made in house
Summary of the method: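 Biotinylated His-PADI4 captured on CAP chip (~3000 RU); peptides as 5-point 3-fold series in HEPES, 150 mM NaCl, 10 mM CaCl2, 0.1% DMSO, pH 7.5, triplicate. Warhead peptides fitted two-state (k-2 = 0; Ki = k-1/k+1, kinact = k+2); others 1:1.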

PADI3 = target: T2, PADI3 (Homo sapiens, UniProt Q9ULW8); assay: Incubation time-dependent COLDER assay, selectivity; type: biochemical; conditions: for PADI3 activity normalised to 0.1% DMSO: quenched after 60 mins; for selectivity for PADI4 over PADI3: COLDER; for PADI3 activity, normalised (Figure S11c): same values as column 60 of Figure S11b
T2 construct: PADI3 (residue 1-664); made in house; host or cells: E. coli NiCo21(DE3)
T2 sequence (Q9ULW8 1-664): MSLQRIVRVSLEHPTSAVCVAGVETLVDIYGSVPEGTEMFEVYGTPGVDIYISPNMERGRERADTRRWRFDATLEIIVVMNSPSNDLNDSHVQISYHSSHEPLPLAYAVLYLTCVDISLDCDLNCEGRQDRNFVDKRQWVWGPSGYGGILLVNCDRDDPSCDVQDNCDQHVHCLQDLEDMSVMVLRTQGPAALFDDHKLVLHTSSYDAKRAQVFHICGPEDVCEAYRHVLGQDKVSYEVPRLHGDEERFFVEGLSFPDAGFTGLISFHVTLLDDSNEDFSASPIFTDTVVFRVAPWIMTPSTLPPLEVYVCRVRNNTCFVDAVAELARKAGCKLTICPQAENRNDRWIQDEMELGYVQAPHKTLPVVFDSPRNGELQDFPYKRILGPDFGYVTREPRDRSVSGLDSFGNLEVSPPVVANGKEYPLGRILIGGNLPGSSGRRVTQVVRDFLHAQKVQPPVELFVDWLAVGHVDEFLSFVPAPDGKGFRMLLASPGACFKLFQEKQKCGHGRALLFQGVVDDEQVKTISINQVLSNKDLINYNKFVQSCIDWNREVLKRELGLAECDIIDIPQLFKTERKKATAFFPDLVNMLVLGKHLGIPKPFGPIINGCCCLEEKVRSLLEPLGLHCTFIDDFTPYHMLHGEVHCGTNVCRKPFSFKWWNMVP
Description: To determine KI and kinact of covalent peptide inhibitors, COLDER assays were used[52]. Peptide dilutions were prepared using 5-fold dilutions from 500 µM and 300 µM to 0.8 µM and 2.4 µM, respectively, at 1% DMSO in COLDER buffer (50 mM HEPES, 150 mM NaCl and 2 mM DTT, pH 7.5). The 9 peptide dilutions were added to a 96-well plate, alongside a 1% DMSO control. An equal volume of 10 mM BAEE was added to each well and the solution was homogenised by pipette mixing. This was mixed with 50 nM His-PADI4, 0.6 mg/mL BSA and 10 mM CaCl2, in COLDER buffer, to bring the final volume to 300 µL in each well. Alternatively, His-PAD1 (100 nM) /His-PADI2 (100 nM) /His-PADI3 (250 nM) were used. For assays with PADI1 and PADI3, 10 mM N^α-benzoyl-L-arginine methyl […] (BAME) was used as the substrate instead of BAEE[48],[58],[59]. At 15-minute intervals, for 5 timepoints, 50 µL of solution was taken from each well and quenched with 10 µL EDTA (300 mM). 200 µL of COLDER solution containing 20 mM diacetyl monoxime/2,3-butanedione monoxime (Merck), 0.5 mM thiosemicarbazide (Acros Organics), 2.25 M H3PO4, 4.5 M H2SO4 and 1.5 mM NH4Fe(SO4)2.12H2O was added to each well. Samples were incubated for 20 min at 95 °C before measuring absorbance at 540 nm on a CLARIOstar Plus (BMG LABTECH). IC50 values for each time point were determined using non-linear regression with GraphPad Prism. Incubation time–dependent potency IC50(t) against incubation time was fitted to the Krippendorff equation (below) to determine KI and kinact using a Python script[53],[59]. […] IC50t=KI1+S/KM⋅2−2e^−ηIC50⋅kinact⋅t/ηIC50⋅kinact⋅t−1 WhereηIC50=IC50t/KI1+S/KM+IC50t

[1] = each replicate, read-out: k2 / kinact
[2] = two-state reaction model, k+2, read-out: SPR kinact (converted)

T1 sequence (Q9UM07 whole entry): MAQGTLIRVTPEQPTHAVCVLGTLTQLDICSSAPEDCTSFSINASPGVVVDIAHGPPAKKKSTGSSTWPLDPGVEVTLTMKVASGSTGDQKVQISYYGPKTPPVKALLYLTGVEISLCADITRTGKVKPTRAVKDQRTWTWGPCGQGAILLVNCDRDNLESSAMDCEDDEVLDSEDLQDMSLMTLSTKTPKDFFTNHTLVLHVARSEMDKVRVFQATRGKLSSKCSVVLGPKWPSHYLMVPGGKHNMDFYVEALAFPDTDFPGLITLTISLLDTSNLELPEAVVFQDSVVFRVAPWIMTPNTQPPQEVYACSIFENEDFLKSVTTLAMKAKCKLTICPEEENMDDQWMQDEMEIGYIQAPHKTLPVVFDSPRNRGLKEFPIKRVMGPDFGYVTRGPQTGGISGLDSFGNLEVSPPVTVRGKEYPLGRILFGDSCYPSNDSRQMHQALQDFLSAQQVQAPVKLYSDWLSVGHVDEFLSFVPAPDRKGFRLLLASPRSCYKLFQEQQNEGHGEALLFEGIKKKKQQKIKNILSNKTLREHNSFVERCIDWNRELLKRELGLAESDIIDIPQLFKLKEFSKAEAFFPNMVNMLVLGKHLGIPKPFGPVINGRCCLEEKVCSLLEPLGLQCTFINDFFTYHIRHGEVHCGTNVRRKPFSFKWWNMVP

CC(C)C[C@@H]1NC(=O)[C@H](CCCCN)NC(=O)[C@H](CO)NC(=O)[C@H](CO)NC(=O)[C@H](Cc2ccc(O)cc2)NC(=O)[C@H](Cc2c[nH]cn2)NC(=O)[C@H](CCCNC(=N)CF)NC(=O)[C@H](CC(=O)O)NC(=O)[C@H](CC(C)C)NC(=O)[C@@H](Cc2ccc(O)cc2)NC(=O)CSC[C@@H](C(=O)NCC(N)=O)NC(=O)[C@H](Cc2ccc(O)cc2)NC1=O [cP4_15, yLD(2)HYSSKLYCG] ({CH2CO}-[dY]LD[Orn(fluoroacetimidoyl)]HYSSKLYCG-NH2; thioether N-12)
kinact/KI (PADI4): 26600 M⁻¹ s⁻¹ | k2 / kinact (PADI4; each replicate): 0.0051 s⁻¹ | kinact (PADI4; [1]): 0.0028 s⁻¹ | kinact (PADI4; [2]): 0.00417 s⁻¹ | Ki (PADI4; two-state reaction model): 160 ± 30 nM | PADI3 activity normalised to 0.1% DMSO (PADI3; 0.08 µM): 106.942 and 103.941 | PADI3 activity normalised to 0.1% DMSO (PADI3; 0.24 µM): 100.503 and 99.2995 | PADI3 activity normalised to 0.1% DMSO (PADI3; 0.4 µM): 100.805 and 104.641 | PADI3 activity normalised to 0.1% DMSO (PADI3; 1.2 µM): 98.1891 and 97.8109 | PADI3 activity normalised to 0.1% DMSO (PADI3; 2 µM): 82.1932 and 92.0315 | PADI3 activity normalised to 0.1% DMSO (PADI3; 6 µM): 75.5533 and 73.7303 | PADI3 activity normalised to 0.1% DMSO (PADI3; 10 µM): 66.499 and 67.8634 | PADI3 activity normalised to 0.1% DMSO (PADI3; 30 µM): 30.8853 and 30.3853 | PADI3 activity normalised to 0.1% DMSO (PADI3; 50 µM): 18.8129 and 17.5131 | IC50 (PADI3; 60-minute time point, no preincubation): ~40 µM | selectivity for PADI4 over PADI3 (PADI3): Approximately 45 fold

N=C(N)NCCC[C@@H]1NC(=O)[C@H](CCCNC(=N)CF)NC(=O)[C@H](CC(=O)O)NC(=O)[C@H](Cc2ccc(O)cc2)NC(=O)[C@H](CCCCN)NC(=O)[C@H](CO)NC(=O)[C@@H](Cc2ccc(O)cc2)NC(=O)CSC[C@@H](C(=O)NCC(N)=O)NC(=O)[C@H](CC(=O)O)NC(=O)[C@H](CCCNC(=N)N)NC(=O)[C@@H]2CCCN2C(=O)[C@H](CO)NC1=O [cP4_4, ySKYD(2)RSPRDCG] ({CH2CO}-[dY]SKYD[Orn(fluoroacetimidoyl)]RSPRDCG-NH2; thioether N-12)
kinact/KI (PADI4): 15200 M⁻¹ s⁻¹ | k2 / kinact (PADI4; each replicate): 0.0019 s⁻¹ | kinact (PADI4; [1]): 0.0017 s⁻¹ | kinact (PADI4; [2]): 0.00183 s⁻¹ | Ki (PADI4; two-state reaction model): 120 ± 10 nM | selectivity for PADI4 over PADI3 (PADI3): 8 fold | PADI3 activity, normalised (Figure S11c) (PADI3; cP4_4 0.08 µM): 98.438 and 99.5208 and 99.723 | PADI3 activity, normalised (Figure S11c) (PADI3; cP4_4 0.24 µM): 84.0122 and 99.425 and 100.739 | PADI3 activity, normalised (Figure S11c) (PADI3; cP4_4 0.4 µM): 91.6386 and 95.0168 and 95.5679 | PADI3 activity, normalised (Figure S11c) (PADI3; cP4_4 1.2 µM): 73.8132 and 78.438 and 79.5014 | PADI3 activity, normalised (Figure S11c) (PADI3; cP4_4 2 µM): 66.9219 and 70.5798 | PADI3 activity, normalised (Figure S11c) (PADI3; cP4_4 6 µM): 34.487 and 31.5764 and 37.6731 | PADI3 activity, normalised (Figure S11c) (PADI3; cP4_4 10 µM): 25.1148 and 25.0599 and 28.7165 | PADI3 activity, normalised (Figure S11c) (PADI3; cP4_4 30 µM): 13.6294 and 7.139 and 10.988 | PADI3 activity, normalised (Figure S11c) (PADI3; cP4_4 50 µM): 9.311 and 5.7978 and 6.279
